Experimental data as given in ChEMBL document CHEMBL1201862, “PubChem BioAssay data set” (2004).
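Protocol summary: plate cells (96-well), add compound at 5 concentrations, incubate 48 h, interpolate endpoints linearly. GI50 is the concentration that inhibits growth by half.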 The source made the active and inactive calls. Rule as the data show it: active = GI50 up to about 1.1 µM and inactive = higher.

What was measured:
Assay in all cases: inhibition of tumour cell growth, NCI panel, 48 h
[1] = tested on: CAKI-1
[2] = tested on: DU-145
[3] = tested on: TK-10
[4] = tested on: Malme-3M
[5] = tested on: CCRF-CEM
[6] = tested on: MDA-MB-231
[7] = tested on: OVCAR-8
[8] = tested on: UACC-257
[9] = tested on: SW-620
[10] = tested on: HL-60
[11] = tested on: HCT-116
[12] = tested on: SK-MEL-2
[13] = tested on: UACC-62
[14] = tested on: KM12
[15] = tested on: PC-3
[16] = tested on: U-251
[17] = tested on: M14
[18] = tested on: HCC 2998
[19] = tested on: NCI-H522

Measured: GI50

O=C(c1ccco1)N(C(=O)N1CCCCC1)c1ccccc1
inactive: [1] > 100 µM | [2] > 100 µM | [3] > 100 µM | [4] 41.2 µM | [5] > 100 µM | [6] > 100 µM | [7] > 100 µM | [8] > 100 µM | [9] > 100 µM | [10] > 100 µM | [11] > 100 µM | [12] > 100 µM | [13] > 100 µM | [14] > 100 µM | [15] > 100 µM | [16] > 100 µM | [17] > 100 µM

CC(C)(C)OC(=O)N1CCCC1=O
inactive: [2] > 10 µM | [3] > 10 µM | [4] > 10 µM | [5] > 10 µM | [6] > 10 µM | [7] > 10 µM | [8] > 10 µM | [9] > 10 µM | [10] > 10 µM | [11] > 10 µM | [12] > 10 µM | [18] > 10 µM | [13] > 10 µM | [14] > 10 µM | [15] > 10 µM | [16] > 10 µM | [17] > 10 µM

O=C(O)CCCC(=O)Nn1c(Cc2ccc(Cl)cc2)n[nH]c1=O
inactive: [1] > 100 µM | [2] > 100 µM | [3] > 100 µM | [4] > 100 µM | [5] > 100 µM | [6] > 100 µM | [7] > 100 µM | [8] > 100 µM | [19] 71.8 µM | [9] > 100 µM | [10] 26.9 µM | [11] > 100 µM | [12] > 100 µM | [13] > 100 µM | [14] > 100 µM | [15] > 100 µM | [16] > 100 µM | [17] > 100 µM

COc1cccc(C2c3cc4c(cc3OC(N3CCCC3)C2c2ccccc2)OCO4)c1O (centres undefined)
inactive: [1] 2.88 µM | [2] 11.9 µM | [3] 13.7 µM | [5] 5.13 µM | [7] 10.3 µM | [8] 11.4 µM | [19] 12 µM | [9] 7.78 µM | [11] 4.21 µM | [12] 12.1 µM | [18] 11 µM | [13] 14.1 µM | [14] 2.76 µM | [15] 8.28 µM | [17] 11 µM

CC(=O)OCC1OC(N2C(=O)C(=O)c3ccccc32)C(OC(C)=O)C(OC(C)=O)C1OC(C)=O (centres undefined)
inactive: [1] > 100 µM | [3] > 100 µM | [4] > 100 µM | [5] > 100 µM | [7] > 100 µM | [8] > 100 µM | [19] > 100 µM | [9] > 100 µM | [12] > 100 µM | [18] > 100 µM | [13] > 100 µM | [14] > 100 µM | [16] > 100 µM | [17] > 100 µM

CCOC(=O)/C(C#N)=C1/C(O)=C(C(=O)OC)C(C(=O)OC)=C1C(=O)OC.c1ccncc1
inactive: [1] > 100 µM | [3] > 100 µM | [4] > 100 µM | [5] > 100 µM | [7] > 100 µM | [8] > 100 µM | [19] > 100 µM | [9] > 100 µM | [10] > 100 µM | [12] > 100 µM | [18] > 100 µM | [13] > 100 µM | [14] > 100 µM | [16] > 100 µM | [17] > 100 µM

O=c1ccn([C@@H]2C[C@@H]2CO)c(=O)[nH]1
inactive: [1] > 100 µM | [2] > 100 µM | [3] > 100 µM | [4] > 100 µM | [5] > 100 µM | [7] > 100 µM | [8] > 100 µM | [19] > 100 µM | [9] > 100 µM | [10] > 100 µM | [11] > 100 µM | [12] > 100 µM | [18] > 100 µM | [13] > 100 µM | [14] > 100 µM | [15] > 100 µM | [16] > 100 µM | [17] > 100 µM

CC1(C)[C@@H](Cn2cnc3c(Cl)nc(N)nc32)CC[C@@]1(C)CO
inactive: [1] 28.2 µM | [2] > 100 µM | [3] > 100 µM | [5] 31.6 µM | [6] 21.3 µM | [8] 30.4 µM | [9] 42.4 µM | [11] 34.3 µM | [12] 18.5 µM | [18] 22.5 µM | [13] 20 µM | [14] > 100 µM | [15] 96.6 µM | [16] > 100 µM | [17] 40.3 µM
